Data reported in US20050222225A1, “Use of compounds for increasing spermatozoa motility” (APPLIED RESEARCH SYSTEMS ARS HOLDING NV, priority 2002, published 2005).

Tests used:
[1] = test system: C5a-mediated AKT phosphorylation in Raw 264-7 macrophages; experiment: Cell based ELISA: Akt/PKB phosphorylation in macrophages after stimulation with C5a; conditions: Mus musculus, 50 nM C5a; for inhibition at 10 µM: RAW264.7, compound at 10 μM; for inhibition at 1 µM: RAW264.7, compound at 1 μM
Experimental: b) Cell Based ELISA to Monitor PI3K Inhibition: Measurement of Akt/PKB phosphorylation in macrophages after stimulation with C5a: Raw 264: Raw 264-7 macrophages (cultured in DMEM-F12 medium containing 10% Fetal Calf serum and antibiotics) are plated at 20'000 cells/well in a 96 MTP 24 h before cell stimulation. Previous to the stimulation with 50 nM of Complement 5a (C5a; which is a well known chemokine which stimulates the used cells) during 5 minutes, Cells are serum starved for 2 h, and pretreated with inhibitors for 20 minutes. After stimulation cells are fixed in 4% formaldehyde for 20 minutes and washed 3 times in PBS containing 1% Triton X-100 (PBS/Triton). Endogenous peroxidase is blocked by a 20 minutes incubation in 0.6% H2O2 and 0.1% Sodium Azide in PBS/Triton and washed 3 times in PBS/Triton. Cells are then blocked by 60 minutes incubation with 10% fetal calf serum in PBS/Triton. Next, phosphorylated Akt/PKB is detected by an overnight incubation at 4° C. with first antibody (anti phospho Serine 473 Akt IHC, Cell Signaling) diluted 800-fold in PBS/Triton, containing 5% bovine serum albumin (BSA). After 3 washes in PBS/Triton, cells are incubated for 60 minutes with a peroxidase conjugated goat-anti-rabbit antibody (1/400 dilution in PBS/Triton, containing 5% BSA), washed 3 times in PBS/Triton, and 2 times in PBS and further incubated in 100 μl of substrate reagent solution (R&D) for 20 minutes. The reaction is stopped by addition of 50 μl of 1 M H2SO4 and absorbance is read at 450 nm. The values indicated reflect the percentage of inhibition of AKT phoshorylation as compared to basal level. Said values show a clear effect of the azolidinone-vinyl fused-benzene compounds on the activation of AKT phosphorylation in macrophages.

[2] = test system: spermatozoa; experiment: Sperm cell parameters by computer aided sperm analysis (CASA); type: cell-based, human; conditions: 10 μM; sperm samples from oligo-asthenospermic subjects; vs control sample
Text: In the experiments the following examples are based on, standard methods of in vitro fertilization have been used. With regard to the details of these methods, reference is made to the “WHO manual” (WHO laboratory manual for the examination of human semen and sperm-cervical mucus interactions, 4th edition, Cambridge University Press 1999). In particular, the direct swim-up method can be taken from pp. 104 to 106 of this manual.
b) Effect of Example 1 Compound on Further Sperm Cell Parameters:
These parameters are determined by computer aided sperm analysis (CASA) in sperm samples from different oligo-asthenospermic subjects.

[3] = biological target: Human recombinant GST-PI3Kγ (Homo sapiens, UniProt P48736); experiment: High Throughput PI3K Lipid Kinase Assay (scintillation proximity assay, neomycin-coated beads); type: biochemical
Experimental: A. a) High Throughput PI3K Lipid Kinase Assay (Binding Assay):
The assay combines the scintillation proximity assay technology (SPA, Amersham) with the capacity of neomycin (a polycationic antibiotic) to bind phospholipids with high affinity and specificity. The Scintillation Proximity Assay is based on the properties of weakly emitting isotopes (such as ^3H, ^125I, ^33P). Coating SPA beads with neomycin allows the detection of phosphorylated lipid substrates after incubation with recombinant PI3K and radioactive ATP in the same well, by capturing the radioactive phospholipids to the SPA beads through their specific binding to neomycin.
To a 384 wells MTP containing 5 μl of the test compound of formula (I) (solubilized in 6% DMSO; to yield a concentration of 100, 30, 10, 3, 1, 0.3, 0.1, 0.03, 0.01, 0.001 μM of the test compound), the following assay components are added. 1) 5 μl (58 ng) of Human recombinant GST-PI3Kγ (in Hepes 40 mM, pH 7.4, DTT 1 mM and ethylenglycol 5%) 2) 10 μl of lipid micelles and 3) 10 μl of Kinase buffer ([^33P]ATP 45 μM/60 nCi, MgCl2 30 mM, DTT 1 mM, β-Glycerophosphate 1 mM, Na3VO4 100 μM, Na Cholate 0.3%, in Hepes 40 mM, pH 7.4). […] After precipitation of the neomycin-coated PVT SPA beads for 5 minutes at 1500×g, radioactive PtdIns(3)P is quantified by scintillation counting in a Wallac MicroBeta™ plate counter. […]

Chain of Human recombinant GST-PI3Kγ (P48736 whole entry): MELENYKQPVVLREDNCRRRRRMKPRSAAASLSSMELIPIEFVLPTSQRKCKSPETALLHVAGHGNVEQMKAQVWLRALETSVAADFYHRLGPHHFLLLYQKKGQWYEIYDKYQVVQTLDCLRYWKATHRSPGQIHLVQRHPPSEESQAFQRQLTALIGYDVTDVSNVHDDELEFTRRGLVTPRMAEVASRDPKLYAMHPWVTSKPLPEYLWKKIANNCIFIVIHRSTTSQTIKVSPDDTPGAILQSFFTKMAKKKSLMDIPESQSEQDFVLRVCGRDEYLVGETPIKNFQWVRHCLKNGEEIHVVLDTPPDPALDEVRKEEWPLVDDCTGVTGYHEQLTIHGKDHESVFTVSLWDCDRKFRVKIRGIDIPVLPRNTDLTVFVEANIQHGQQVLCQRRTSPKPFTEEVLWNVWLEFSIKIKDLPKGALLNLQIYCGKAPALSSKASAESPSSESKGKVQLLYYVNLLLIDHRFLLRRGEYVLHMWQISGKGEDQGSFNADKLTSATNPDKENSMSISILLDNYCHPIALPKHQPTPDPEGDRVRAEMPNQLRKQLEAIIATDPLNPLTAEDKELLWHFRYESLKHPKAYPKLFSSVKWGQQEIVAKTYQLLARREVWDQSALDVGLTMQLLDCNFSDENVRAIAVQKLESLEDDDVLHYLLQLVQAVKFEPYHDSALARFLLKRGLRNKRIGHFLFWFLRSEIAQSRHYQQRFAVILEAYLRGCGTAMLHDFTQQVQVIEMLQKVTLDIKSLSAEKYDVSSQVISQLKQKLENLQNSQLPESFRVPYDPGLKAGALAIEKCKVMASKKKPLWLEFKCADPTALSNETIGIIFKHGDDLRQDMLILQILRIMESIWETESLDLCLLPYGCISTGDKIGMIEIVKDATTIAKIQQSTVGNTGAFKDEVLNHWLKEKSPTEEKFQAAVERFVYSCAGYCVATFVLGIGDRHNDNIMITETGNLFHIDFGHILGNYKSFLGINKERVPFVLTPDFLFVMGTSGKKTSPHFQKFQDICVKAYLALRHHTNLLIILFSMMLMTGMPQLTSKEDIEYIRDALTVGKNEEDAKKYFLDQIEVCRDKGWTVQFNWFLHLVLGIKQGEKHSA

SMILES	inhibition at 10 µM [1]	inhibition at 1 µM [1]	other results
O=C1NC(=O)/C(=C/c2ccc3c(c2)OCO3)S1 [Example 1, 5-(1,3-benzodioxol-5-ylmethylene)-1,3-thiazolidine-2,4-dione]	~100%	–	average path velocity (VAP) [2]: increased in a statistically significant manner; hyper-activated sperm fraction (HA) [2]: increased in a statistically significant manner; percentage curvilinear velocity (VCL) [2]: increased in a statistically significant manner; straight-line velocity (VSL) [2]: increased in a statistically significant manner
CN(C)c1ncnc2ccc(/C=C3\SC(=O)NC3=O)cc12 [Example 17, 5-(4-Dimethylamino-quinazolin-6-ylmethylene)-thiazolidine-2,4-dione]	–	95%	–
O=C1NC(=O)C(=Cc2ccc3ncnc(N4CCCCC4)c3c2)S1 [Example 19, 5-[(4-piperidin-1-ylquinazolin-6-yl)methylene]-1,3-thiazolidine-2,4-dione]	~100%	95%	–
N=C1NC(=O)/C(=C/c2ccc3ncnc(N4CCCCC4)c3c2)S1 [Example 41, 2-Imino-5-(4-piperidine-quinazolin-6-ylmethylene)-thiazolidin-4-one]	–	–	IC50 [3]: < 1 µM
N=C1NC(=O)/C(=C/c2ccc3nccnc3c2)S1 [Example 66, 2-Imino-5-quinoxalin-6-ylmethylene-thiazolidin-4-one]	~100%	–	–
O=C1NC(=O)/C(=C/c2ccc3occ(/C=C/C(=O)N4CCCCC4)c3c2)S1 [Example 73, 5-[3-(3-Oxo-3-piperidin-1-yl-propenyl)-benzofuran-5-ylmethylene]-thiazolidine-2,4-dione]	–	95%	–
O=C1NC(=O)/C(=C/c2ccc3nsnc3c2)S1 [Example 107, 5-Benzo[1,2,5]thiadiazol-5-ylmethylene-thiazolidine-2,4-ione]	~100%	–	IC50 [3]: < 1 µM
